Test results reported in patent publication US5100907A, “Hydantoin esters” (Lonza, Inc., priority 1990, dated 1992).
Read-outs that look alike come from different tables or passages of the source.

What was measured:
Assay type in all cases: physicochemical
[1] = HLB determination (weighted average method)
Excerpt: Hydrophilic-Lipophilic Balance or HLB is a means of associating the hydrophilic and lipophilic characteristics between two surfactants. A "weighted average" method was used to determine the HLB of the esters (I), and by comparison of the precursor ester (Ia), in which two emulsifiers of known HLB values along with the test ester were incorporated in a mixture of mineral oil and water. Evaluation and HLB determination of each of a series of prepared emulsion samples were effected by visual inspection.
The HLB of the mixture "m" is calculated from the sum of the HLB contributions of each surfactant, "a", "b", "c", per Equation 2 which describes a system of oil, water, and three surfactants.
Given that [HLB]m, [HLB]a, and [HLB]b, are known, and the ideal amount of "a", "b", and "c" to prepare a perfect emulsion has been determined, then by rearrangement of Eq. 2, the HLB of "c" can be calculated by Equation 3.
To obtain the HLB of the test ester as surfactant "c", a series of formulations was prepared in which the known surfactant sorbitan monostearate (SMS) as "a" and the known surfactant POE 20 sorbitan monostearate (POE 20 SMS) as "b" were varied in amount (wt. %) relative to each other at a constant amount (1 wt. %) of "c", until an optimum emulsion was obtained. Different combinations of "a" and "b" were used to vary the HLB of "c", for emulsifying a 40:56 (wt. %) mixture of paraffin oil and distilled water (totaling 96 wt. %).
To prepare the emulsions, surfactants "a", "b", and "c", and the paraffin oil were combined in a 150 ml beaker and heated slowly with agitation to 70°-80° C. The value of "X" in each formulation was predetermined by rearranging Eq. 3 to solve for X, and then inserting into the equation various [HLB]c values for the test ester (i.e., 2, 3, 4, 5, 6 . . . ). The [HLB]c values chosen reflected a range that would likely contain the actual HLB of the test ester. Hot distilled water (70°-80° C.) was then slowly added with agitation. The total weight of all these reagents was 100 grams. The resulting emulsion was allowed to cool, with continued agitation, until the temperature dropped below 30° C.
A series of emulsions for each test was prepared, one at a time, and then examined as a set. Each sample within the series was evaluated and graded according to the quality of the emulsion by visual examination of droplet size.

[2] = Surface tension tests (cmc, Gibbs' Free Energy of Micellation); conditions: for ΔG°cmc (Gibbs' Free Energy of Micellation): calculated from cmc by Eq. 1, T=298° K.; for cmc (critical micelle concentration): ester/water solution
Description: Surface tension tests were conducted as to the relationship between the fatty acid aliphatic chain length, i.e. number of carbon atoms, in the esters (I), and their performance as surfactants. The length of the hydrophobic chain of a molecule is considered the major contributing factor to the critical micelle concentration (cmc) value of a surfactant. This value is obtained from surface tension measurement data. The lower the cmc, the more readily the material will form micelles.
The Gibbs' Free Energy of Micellation (ΔG°cmc) and the ΔG°cmc per --CH2 -- can be determined if the cmc is known.
The ΔG°cmc is a calculated value obtained by Equation 1.
ΔG°cmc =2.303RT(log cmc-log[water]) (Eq. 1)
The ΔG°cmc per --CH2 -- value is obtained from the slope of the straight line curve formed from a plot of ΔG°cmc versus the number of carbon atoms in the lipophilic chain.
The cmc values were based on surface tension tests conducted with a tensiometer (Cenco-DuNoug Precision Model #70535, direct reading model) to determine the upward surface tension at the liquid-air surface of the test ester/water solution. The methods used to calibrate the tensiometer, calculate the "correction factor" (used to correct for the difference between the apparent and true surface tension), and collect data, were conducted as described in the manual for the instrument. Sodium lauryl sulfate (SLS) and distilled water were used as reference samples.
On completing data collection, plots of the surface tension (dynes) versus -log of the concentration (mols/liter) were prepared, using only the "corrected" surface tension value, obtained by applying the noted "correction factor" in each case. The […] was found by multiplying the "apparent" surface tension by a calculated correction factor.
The critical micelle concentration (cmc) for each sample was determined by locating the point in the curve where the surface tension first begins to level off, per a known procedure.

[3] = Dispersion stability tests
Description: The dispersion stability tests were performed on the esters (I) to determine the extent each was able to disperse itself in an aqueous medium.
The dispersions were prepared by homogenizing a mixture of the test ester and water, after which repeated examination of the sample was effected for a period of 55 days. This test method is fully indicative of the dispersibility of these esters (I).
The dispersion tests were performed with the esters at 0.5% and 5.0% active levels in water, prepared by combining the test ester with distilled water, and homogenizing the mixture for one to three minutes, via a Kika-Werk Ultra-Turrax S D-45 homogenizer. The dispersions were poured into an eight ounce flint jar, capped, and periodically examined over a 55 day period.

[4] = Solubilities of esters in typical solvents / appearance of samples in water; conditions: for Solubility in isopropyl alcohol / Solubility in mineral oil / solubility: 25° C.; for solubility: water
Emulsion stability tests = conditions: for Classification of Emulsion: 2% ester, 7% myristyl propionate, 91% water
Description: Emulsion stability tests were performed on the esters (I), and for comparison on the precursor esters (Ia), to determine the extent to which each stabilized a standardized solution of water and an oil, using a common procedure consisting of homogenizing a mixture containing the test ester (2%), myristyl propionate (7%), and water (91%). While two emulsifiers are normally used to prepare a cosmetic formulation, e.g. one with a high HLB and the other with a low HLB, the test method herein using only one emulsifier, i.e. the test ester, is fully indicative of the emulsifying attributes of these esters.
The tests were performed with emulsions (500 g), prepared by combining the test ester (10.0 g), myristyl propionate (35 g), and distilled water (455 g) in a container and homogenizing the contents for one minute, via a Kika-Werk Ultra-Turrax S D-45 homogenizer. The emulsions were poured into a one pound flint jar, capped, and periodically examined over a 55 day period.

[5] = Total available formaldehyde (TF) and free formaldehyde (FF) levels of esters (I); conditions: for Calculated TF / Determined FF / Ratio FF/TF: 1% active concentration in water; for FF (free formaldehyde) / TF (total available formaldehyde): neat ester, Table 3; for FF/TF ratio: water
Excerpt: Thus, whether the formaldehyde content is chemically bonded to the hydantoin moiety or is free formaldehyde (FF) in solution, e.g., in water as formaldehyde or methylene glycol [CH2 (OH)2 ], it remains available for biocidal action. Due to this direct relation, the weight percent TF in a given preparation of the ester (I), e.g. a cosmetic formulation, can be predicted accurately, regardless of the level of dilution.

[6] = Physical properties of methylolated MHEDMH esters (I): viscosity; conditions: at 25° C.
[7] = grams, legend per 100 g Solvent

| Compound | Average HLB [1] | HLB Range [1] | ΔG°cmc (Gibbs' Free Energy of Micellation) [2] [kcal/mol] | cmc (critical micelle concentration) [2] | dispersion quality, decreasing order of rank [3] | Classification of Dispersion ([3]; 0.5% active in water, 3 Days) | Classification of Dispersion ([3]; 0.5% active in water, 13 Days) | Classification of Dispersion ([3]; 0.5% active in water, 55 Days) | Classification of Dispersion ([3]; 5.0% active in water, 3 Days) | Classification of Dispersion ([3]; 5.0% active in water, 13 Days) | Classification of Dispersion ([3]; 5.0% active in water, 55 Days) | Solubility in isopropyl alcohol [4] | emulsion quality, decreasing order of rank (Emulsion stability tests) | Classification of Emulsion (Emulsion stability tests; 2 Hours after preparation) | Calculated TF [5] [Wt. %] | Determined FF [5] [Wt. %] | Ratio FF/TF [5] | FF (free formaldehyde) [5] [Wt. %] | TF (total available formaldehyde) [5] [Wt. %] | Viscosity [6] | also measured |
| --- | --- | --- | --- | --- | --- | --- | --- | --- | --- | --- | --- | --- | --- | --- | --- | --- | --- | --- | --- | --- | --- |
| CCCCCCCCCCCCCCCCCC(=O)OCCN1C(=O)N(CO)C(=O)C1(C)C [Stearic Methylolated Ester, 2-(3-hydroxymethyl-5,5-dimethyl-1,3-diazacyclopentane-2,4-dion-1-yl)-ethylester of stearic acid] | 7.0 | 6-8 | -5.277 | 7.0 × 10^-3 mol dm^-3 | isostearate>oleate>cocoate>laurate>C8/10ester>>stearate>acetate | 2-Phase | 2-Phase | 2-Phase | 2-Phase | 2-Phase | 2-Phase | S (>10 g/100 g Solvent) | cocoate, laurate>oleate,isostearate>stearate>C8/10 ester>acetate | Good/OK | 0.064 | 0.0066 | 0.103 | 0.2 | 6.4 |  | Average HLB ([1]; listed as stearate (I)): 7; water solubility relative to the other esters [4]: far less soluble in water than the other such esters; Solubility in mineral oil [4]: S (>10 g/100 g Solvent); solubility [4, 7]: < 10 mg/mL |
| 2-(3-hydroxymethyl-5,5-dimethyl-1,3-diazacyclopentane-2,4-dion-1-yl)-ethylester of isostearic acid [Isostearic Methylolated Ester] | 15.0 | 14-16 | -7.13 | 3.0 × 10^-4 mol dm^-3 | isostearate>oleate>cocoate>laurate>C8/10ester>>stearate>acetate |  |  |  |  |  |  |  | cocoate, laurate>oleate,isostearate>stearate>C8/10 ester>acetate |  | 0.062 | 0.0082 |  | 0.2 | 6.2 | 957 cts | surface active properties [2]: particularly favorable surface active properties |
| CC(=O)OCCN1C(=O)N(CO)C(=O)C1(C)C [Acetic Methylolated Ester, 2-(3-hydroxymethyl-5,5-dimethyl-1,3-diazacyclopentane-2,4-dion-1-yl)-ethylester of acetic acid] | 19.0 | 19-20 | -3.896 | 7.24 × 10^-3 mol dm^-3 | isostearate>oleate>cocoate>laurate>C8/10ester>>stearate>acetate | Dissolved | Dissolved | Dissolved | Dissolved | Dissolved | Dissolved | S (>10 g/100 g Solvent) | cocoate, laurate>oleate,isostearate>stearate>C8/10 ester>acetate | 2-Phase | 0.123 | 0.0199 | 0.162 | 0.6 | 12.3 | 4,384 cts | Average HLB ([1]; listed as acetate (I)): 19; Classification of Dispersion ([3]; 0.5% active in water, 2 Hours): Dissolved; Classification of Dispersion ([3]; 5.0% active in water, 2 Hours): Dissolved; Solubility in mineral oil [4, 7]: 3 g; solubility [4]: > 100 mg/mL; ability to stabilize emulsions (Emulsion stability tests): generally unable to stabilize an emulsion for more than two hours; Classification of Emulsion (Emulsion stability tests; 7 Days after preparation): 2-Phase; Classification of Emulsion (Emulsion stability tests; 22 Days after preparation): 2-Phase; Classification of Emulsion (Emulsion stability tests; 55 Days after preparation): 2-Phase; FF/TF ratio ([5]; concentration 0.1%): 0.25; FF/TF ratio ([5]; concentration 1%): 0.20; FF/TF ratio ([5]; concentration levels >5%): about 0.15% |
